Measurements: patent US20190119284A1, “ErbB Inhibitors and Uses Thereof” (The Regents of the University of California, priority 2016, published 2019)
Like-named read-outs stand apart in the source and are kept apart here.

Columns and labels:
[1] = biological target: T1, 2YF-YVMA/3wt + NRG Ba/F3 cells (Homo sapiens, UniProt P04626, DUP772-775/Y1005F/Y1023F/Y1112F/Y1127F/Y1139F/Y1196F/Y1221F/Y1222F/Y1248F, cells depend on it); test: Ba/F3 proliferation assay, 2YF-YVMA/3wt + NRG; assay type: cell-based
T1 construct: reported HER2 oncogenic mutants in the HER2YF construct
Procedure: For the 2YF/3wt cells, the parental cells were first transduced with HER3 according to the protocol above and were then spun down at 500×g for 5 min and re-suspended in media supplemented with 10 ng/mL IL-3 and 3 μg/mL puromycin (Invitrogen). Cells were maintained in these conditions for seven days, passaging as required. After seven days the cells were spun down, washed with fresh media, and then used for a subsequent round of transduction according to the protocol above with HER2YF virus. […] The cells were maintained in these conditions for seven days, passaging as required. After seven days the cells were spun down, washed with fresh media, and then suspended in media supplemented with 10 ng/mL of NRG. Cells were maintained in these conditions for seven days to select for a NRG dependent population of 2YF/3wt Ba/F3 cells that were then maintained as described above. The same protocol was used for the 2YF-L755S/3wt, 2YF-YVMA/3wt, and 2YF-VC/3wt cell lines using the indicated constructs.
Proliferation Assays. […] The following day media was changed to fresh media that contained either DMSO or the indicated concentration of drug plus NRG (50 ng/mL final concentration) as indicated. […] For all normalized assays, proliferation was normalized to the DMSO control condition. […]

LCK = LCK (Homo sapiens, UniProt P06239); test: Nanosyn in vitro kinase profiling: LCK; assay type: biochemical; settings: for inhibition at 1 µM: compound at 1 μM
Procedure: (§1) This was confirmed by in vitro profiling against a panel of kinases, with compound 2 only showing potent inhibition of EGFR and Ab1 (Table 2).
(§2) In vitro Kinome Screen. In vitro profiling of compound 2 at 100 nM was conducted by Nanosyn.

FLT-3 = biological target: T2, FLT-3 (Homo sapiens, UniProt P36888); test: Nanosyn in vitro kinase profiling: FLT-3; assay type: biochemical; settings: for inhibition at 1 µM: compound at 1 μM
T2 sequence (P36888 27-993): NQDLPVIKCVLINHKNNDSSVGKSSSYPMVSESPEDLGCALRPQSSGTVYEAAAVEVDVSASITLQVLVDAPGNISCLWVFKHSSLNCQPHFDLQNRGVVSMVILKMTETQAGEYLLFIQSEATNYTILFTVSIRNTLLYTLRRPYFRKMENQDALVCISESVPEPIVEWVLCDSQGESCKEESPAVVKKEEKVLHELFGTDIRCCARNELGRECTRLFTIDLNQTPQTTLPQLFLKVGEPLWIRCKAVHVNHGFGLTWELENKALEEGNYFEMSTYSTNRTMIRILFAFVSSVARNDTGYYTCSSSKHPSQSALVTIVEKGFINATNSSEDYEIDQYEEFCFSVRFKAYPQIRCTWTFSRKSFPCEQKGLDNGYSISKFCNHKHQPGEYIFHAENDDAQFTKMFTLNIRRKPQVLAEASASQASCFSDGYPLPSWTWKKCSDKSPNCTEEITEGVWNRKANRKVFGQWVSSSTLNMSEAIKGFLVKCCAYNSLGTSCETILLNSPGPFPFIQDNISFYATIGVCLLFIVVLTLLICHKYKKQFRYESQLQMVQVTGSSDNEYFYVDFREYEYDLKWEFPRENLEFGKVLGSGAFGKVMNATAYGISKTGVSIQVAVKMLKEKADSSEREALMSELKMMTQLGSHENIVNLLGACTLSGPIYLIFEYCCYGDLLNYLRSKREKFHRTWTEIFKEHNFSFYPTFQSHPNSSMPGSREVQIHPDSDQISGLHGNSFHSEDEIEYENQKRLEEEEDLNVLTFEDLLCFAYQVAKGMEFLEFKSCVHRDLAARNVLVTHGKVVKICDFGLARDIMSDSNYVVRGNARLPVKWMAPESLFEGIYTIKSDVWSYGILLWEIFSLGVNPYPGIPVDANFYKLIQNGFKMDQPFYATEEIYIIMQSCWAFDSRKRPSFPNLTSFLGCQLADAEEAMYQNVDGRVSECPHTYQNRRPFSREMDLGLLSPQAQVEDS
Procedure: as §1, §2

KDR = KDR (Homo sapiens, UniProt P35968); test: Nanosyn in vitro kinase profiling: KDR; assay type: biochemical; settings: for inhibition at 1 µM: compound at 1 μM
Procedure: as §1, §2

PDGFR-ALPHA = PDGFR-ALPHA (Homo sapiens, UniProt P16234); test: Nanosyn in vitro kinase profiling: PDGFR-ALPHA; assay type: biochemical; settings: for inhibition at 1 µM: compound at 1 μM
Procedure: as §1, §2

CDK2 = CDK2 (Homo sapiens, UniProt P24941); test: Nanosyn in vitro kinase profiling: CDK2; assay type: biochemical; settings: for inhibition at 1 µM: compound at 1 μM
Procedure: as §1, §2

PIM-1-KINASE = PIM-1-KINASE (Homo sapiens, UniProt P11309); test: Nanosyn in vitro kinase profiling: PIM-1-KINASE; assay type: biochemical; settings: for inhibition at 1 µM: compound at 1 μM
Procedure: as §1, §2

IRAK4 = biological target: T3, IRAK4 (Homo sapiens, UniProt Q9NWZ3); test: Nanosyn in vitro kinase profiling: IRAK4; assay type: biochemical; settings: for inhibition at 1 µM: compound at 1 μM
T3 sequence (Q9NWZ3 1-460): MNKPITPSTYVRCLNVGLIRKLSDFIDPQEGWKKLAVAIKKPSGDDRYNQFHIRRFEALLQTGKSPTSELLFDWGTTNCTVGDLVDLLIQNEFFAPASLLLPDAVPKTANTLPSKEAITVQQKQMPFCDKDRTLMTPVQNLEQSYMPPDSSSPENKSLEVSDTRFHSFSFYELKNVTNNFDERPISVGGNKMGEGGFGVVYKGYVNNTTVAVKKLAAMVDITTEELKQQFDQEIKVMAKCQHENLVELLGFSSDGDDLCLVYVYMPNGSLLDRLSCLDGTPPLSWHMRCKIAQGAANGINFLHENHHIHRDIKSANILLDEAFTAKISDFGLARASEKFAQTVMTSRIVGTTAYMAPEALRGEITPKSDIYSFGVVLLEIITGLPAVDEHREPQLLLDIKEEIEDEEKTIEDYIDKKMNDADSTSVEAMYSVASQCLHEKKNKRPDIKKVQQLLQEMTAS
Procedure: as §1, §2

MAPKAPK-2 = MAPKAPK-2 (Homo sapiens, UniProt P49137); test: Nanosyn in vitro kinase profiling: MAPKAPK-2; assay type: biochemical; settings: for inhibition at 1 µM: compound at 1 μM
Procedure: as §1, §2

PAK2 = PAK2 (Homo sapiens, UniProt Q13177); test: Nanosyn in vitro kinase profiling: PAK2; assay type: biochemical; settings: for inhibition at 1 µM: compound at 1 μM
Procedure: as §1, §2

Sequence of PDGFR-ALPHA (P16234 24-1089, species assumed): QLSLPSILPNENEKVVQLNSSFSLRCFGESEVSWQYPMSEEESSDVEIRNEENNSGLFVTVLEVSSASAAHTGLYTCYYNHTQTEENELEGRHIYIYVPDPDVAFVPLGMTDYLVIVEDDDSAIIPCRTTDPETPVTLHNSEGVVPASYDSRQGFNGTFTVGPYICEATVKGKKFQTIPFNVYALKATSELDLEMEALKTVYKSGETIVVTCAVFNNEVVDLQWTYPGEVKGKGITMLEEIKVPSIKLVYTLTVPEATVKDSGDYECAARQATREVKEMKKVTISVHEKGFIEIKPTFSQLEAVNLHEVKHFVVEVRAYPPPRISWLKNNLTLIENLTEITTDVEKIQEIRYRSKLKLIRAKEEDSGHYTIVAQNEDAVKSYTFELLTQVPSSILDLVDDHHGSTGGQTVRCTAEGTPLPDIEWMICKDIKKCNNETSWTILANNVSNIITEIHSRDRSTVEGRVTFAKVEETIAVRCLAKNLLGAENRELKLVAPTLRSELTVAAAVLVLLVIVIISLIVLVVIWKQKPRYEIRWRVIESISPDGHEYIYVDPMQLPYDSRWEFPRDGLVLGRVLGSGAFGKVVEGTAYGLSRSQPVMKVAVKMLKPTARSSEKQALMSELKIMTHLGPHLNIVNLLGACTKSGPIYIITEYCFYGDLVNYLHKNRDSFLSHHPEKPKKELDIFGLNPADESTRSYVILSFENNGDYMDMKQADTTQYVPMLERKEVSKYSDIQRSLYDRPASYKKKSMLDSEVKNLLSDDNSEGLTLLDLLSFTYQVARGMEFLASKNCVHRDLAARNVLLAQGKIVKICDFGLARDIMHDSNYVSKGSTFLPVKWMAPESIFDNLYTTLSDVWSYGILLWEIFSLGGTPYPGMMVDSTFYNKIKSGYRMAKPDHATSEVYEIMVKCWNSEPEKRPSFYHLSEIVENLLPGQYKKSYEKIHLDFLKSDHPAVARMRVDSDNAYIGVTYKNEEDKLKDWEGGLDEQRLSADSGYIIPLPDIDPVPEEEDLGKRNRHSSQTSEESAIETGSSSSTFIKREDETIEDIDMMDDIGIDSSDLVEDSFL
Sequence of PAK2 (Q13177 whole entry, species assumed): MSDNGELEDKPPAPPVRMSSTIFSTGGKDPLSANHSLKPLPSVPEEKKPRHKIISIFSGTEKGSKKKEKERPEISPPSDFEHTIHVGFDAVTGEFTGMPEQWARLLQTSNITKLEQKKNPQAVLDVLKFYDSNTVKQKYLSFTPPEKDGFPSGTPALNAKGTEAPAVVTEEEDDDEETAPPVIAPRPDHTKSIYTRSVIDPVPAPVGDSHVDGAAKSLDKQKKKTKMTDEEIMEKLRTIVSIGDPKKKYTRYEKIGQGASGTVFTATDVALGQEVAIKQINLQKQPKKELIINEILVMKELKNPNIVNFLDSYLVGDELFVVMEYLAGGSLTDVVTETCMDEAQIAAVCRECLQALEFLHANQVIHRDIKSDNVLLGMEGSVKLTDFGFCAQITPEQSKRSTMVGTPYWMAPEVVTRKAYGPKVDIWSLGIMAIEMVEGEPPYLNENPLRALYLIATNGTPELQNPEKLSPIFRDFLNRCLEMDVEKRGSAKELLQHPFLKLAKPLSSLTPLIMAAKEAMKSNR
Sequence of MAPKAPK-2 (P49137 whole entry, species assumed): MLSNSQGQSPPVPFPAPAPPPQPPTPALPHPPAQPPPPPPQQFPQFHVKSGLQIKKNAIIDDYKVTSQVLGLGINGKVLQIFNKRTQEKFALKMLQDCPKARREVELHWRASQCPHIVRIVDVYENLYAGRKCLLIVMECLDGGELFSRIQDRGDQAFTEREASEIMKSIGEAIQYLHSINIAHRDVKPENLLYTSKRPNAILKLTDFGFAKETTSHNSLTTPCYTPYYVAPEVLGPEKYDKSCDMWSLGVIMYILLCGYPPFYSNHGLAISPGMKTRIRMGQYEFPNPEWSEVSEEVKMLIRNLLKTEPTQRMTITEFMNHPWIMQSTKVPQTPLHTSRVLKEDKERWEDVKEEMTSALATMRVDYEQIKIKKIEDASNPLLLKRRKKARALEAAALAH
Sequence of LCK (P06239 whole entry): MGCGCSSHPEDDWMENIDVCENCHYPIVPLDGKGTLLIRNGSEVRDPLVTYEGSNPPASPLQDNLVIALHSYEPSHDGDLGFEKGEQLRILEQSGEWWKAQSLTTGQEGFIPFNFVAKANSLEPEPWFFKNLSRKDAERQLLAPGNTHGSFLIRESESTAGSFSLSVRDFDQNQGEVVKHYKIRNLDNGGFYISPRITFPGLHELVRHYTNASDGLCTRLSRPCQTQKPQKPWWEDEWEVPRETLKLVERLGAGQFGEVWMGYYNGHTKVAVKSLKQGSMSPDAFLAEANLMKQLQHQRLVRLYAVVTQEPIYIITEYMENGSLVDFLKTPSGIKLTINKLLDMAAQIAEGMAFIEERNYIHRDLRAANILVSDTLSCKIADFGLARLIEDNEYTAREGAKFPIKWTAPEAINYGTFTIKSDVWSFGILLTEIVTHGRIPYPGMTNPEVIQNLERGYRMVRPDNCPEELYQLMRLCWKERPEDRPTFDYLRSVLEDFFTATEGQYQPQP
Sequence of KDR (P35968 20-1356): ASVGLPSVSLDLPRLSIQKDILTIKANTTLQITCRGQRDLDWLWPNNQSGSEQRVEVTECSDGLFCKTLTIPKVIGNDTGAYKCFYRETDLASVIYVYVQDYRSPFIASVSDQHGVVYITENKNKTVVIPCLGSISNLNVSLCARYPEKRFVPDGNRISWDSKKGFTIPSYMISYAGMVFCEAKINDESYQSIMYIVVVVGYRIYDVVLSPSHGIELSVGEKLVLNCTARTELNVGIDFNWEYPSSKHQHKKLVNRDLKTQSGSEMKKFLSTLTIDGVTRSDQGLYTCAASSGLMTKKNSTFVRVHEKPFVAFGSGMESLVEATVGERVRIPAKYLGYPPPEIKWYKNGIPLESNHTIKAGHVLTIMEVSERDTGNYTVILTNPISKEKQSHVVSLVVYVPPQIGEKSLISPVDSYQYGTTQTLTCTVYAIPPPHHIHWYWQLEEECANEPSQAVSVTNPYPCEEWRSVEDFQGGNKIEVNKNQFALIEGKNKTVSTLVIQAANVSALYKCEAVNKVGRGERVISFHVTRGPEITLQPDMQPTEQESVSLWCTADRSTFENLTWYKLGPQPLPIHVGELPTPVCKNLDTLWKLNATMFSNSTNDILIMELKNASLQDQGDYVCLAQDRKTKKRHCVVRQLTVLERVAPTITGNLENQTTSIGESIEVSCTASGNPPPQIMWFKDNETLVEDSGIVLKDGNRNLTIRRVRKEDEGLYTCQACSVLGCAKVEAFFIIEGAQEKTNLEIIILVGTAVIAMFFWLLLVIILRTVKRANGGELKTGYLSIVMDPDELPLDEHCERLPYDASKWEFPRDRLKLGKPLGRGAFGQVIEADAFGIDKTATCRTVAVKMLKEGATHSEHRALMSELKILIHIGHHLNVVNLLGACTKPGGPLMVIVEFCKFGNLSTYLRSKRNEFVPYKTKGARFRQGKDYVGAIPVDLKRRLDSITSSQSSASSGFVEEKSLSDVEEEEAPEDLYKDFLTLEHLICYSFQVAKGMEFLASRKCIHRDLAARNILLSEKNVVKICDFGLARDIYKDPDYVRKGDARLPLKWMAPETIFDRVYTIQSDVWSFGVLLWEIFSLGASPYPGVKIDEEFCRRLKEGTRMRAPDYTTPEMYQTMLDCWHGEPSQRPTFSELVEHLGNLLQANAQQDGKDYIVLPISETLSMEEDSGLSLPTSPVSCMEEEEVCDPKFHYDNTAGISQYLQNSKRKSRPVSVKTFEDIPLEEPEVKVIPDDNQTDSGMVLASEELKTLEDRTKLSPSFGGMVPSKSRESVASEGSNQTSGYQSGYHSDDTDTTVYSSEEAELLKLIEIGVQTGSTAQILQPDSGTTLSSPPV
Sequence of PIM-1-KINASE (P11309 whole entry): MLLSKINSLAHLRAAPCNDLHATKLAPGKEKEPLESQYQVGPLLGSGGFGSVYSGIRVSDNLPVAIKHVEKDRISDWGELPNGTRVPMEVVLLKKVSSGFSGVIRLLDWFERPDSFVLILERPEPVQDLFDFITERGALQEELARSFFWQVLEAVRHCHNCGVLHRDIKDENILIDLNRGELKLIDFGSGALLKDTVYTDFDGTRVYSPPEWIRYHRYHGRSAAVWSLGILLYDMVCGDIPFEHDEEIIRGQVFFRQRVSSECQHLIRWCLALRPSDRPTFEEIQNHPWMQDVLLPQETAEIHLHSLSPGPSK

| SMILES | GI50 ([1]; read-out: IC50, 2YF-YVMA/3wt + NRG; Table 4; ± S.D., n = 2) | GI50 ([1]; Table 4; ± S.D., n = 2; read-out: IC50, 2YF-YVMA/3wt + NRG) | inhibition at 1 µM (LCK) | inhibition at 1 µM (FLT-3) | inhibition at 1 µM (KDR) | inhibition at 1 µM (PDGFR-ALPHA) | inhibition at 1 µM (CDK2) | inhibition at 1 µM (PIM-1-KINASE) | inhibition at 1 µM (IRAK4) | inhibition at 1 µM (MAPKAPK-2) | inhibition at 1 µM (PAK2) | inhibition at 0.1 µM (LCK; compound at 100 nM) | inhibition at 0.1 µM (FLT-3; compound at 100 nM) | inhibition at 0.1 µM (KDR; compound at 100 nM) | inhibition at 0.1 µM (PDGFR-ALPHA; compound at 100 nM) | inhibition at 0.1 µM (CDK2; compound at 100 nM) | inhibition at 0.1 µM (PIM-1-KINASE; compound at 100 nM) | inhibition at 0.1 µM (IRAK4; compound at 100 nM) | inhibition at 0.1 µM (MAPKAPK-2; compound at 100 nM) | inhibition at 0.1 µM (PAK2; compound at 100 nM) |
| --- | --- | --- | --- | --- | --- | --- | --- | --- | --- | --- | --- | --- | --- | --- | --- | --- | --- | --- | --- | --- |
| CS(=O)(=O)CCNCc1ccc(-c2ccc3ncnc(Nc4ccc(OCc5cccc(F)c5)c(Cl)c4)c3c2)o1 [lapatinib] | > 10000 nM | – | – | – | – | – | – | – | – | – | – | – | – | – | – | – | – | – | – | – |
| COc1ccc(-c2ccoc2)cc1Nc1ncnc2[nH]cc(-c3cc[nH]n3)c12 [compound 3, N-(5-(furan-3-yl)-2-methoxyphenyl)-5-(1H-pyrazol-3-yl)-7H-pyrrolo[2,3-d]pyrimidin-4-amine] | – | 11.4 ± 0.1 nM | 98% | 78% | 74% | 66% | 10% | 7% | 34% | -6% | 3% | – | – | – | – | – | – | – | – | – |
| COc1ccc(-c2ccco2)cc1Nc1ncnc2[nH]nc(-c3ccco3)c12 [compound 2, 3-(furan-2-yl)-N-(5-(furan-2-yl)-2-methoxyphenyl)-1H-pyrazolo[3,4-d]pyrimidin-4-amine] | – | – | 93.6% | 89.4% | 71.3% | 52.5% | 17.6% | 8.71% | 1.42% | 0.575% | 1.07% | 74.2% | 60% | 27.3% | 11.8% | 4.14% | 4.08% | 1.47% | 0.12% | 0.085% |
